# Data taken from patent publication US4935509A (priority 1989, dated 1990).
# Like-named read-outs stand apart in the source and are kept apart here.
# Columns and labels:
# [1] = test system: P388 wild-type cells; test: MTT cell count (ID50), P388 wild-type leukemia cells in vitro; format: cell-based, murine; settings: Mus musculus, read-out: ID50 P388/Wild
# Experimental: (§1) In the various assays set forth below the colorimetric determination of the number of cells was carried out by the following procedure using MTT.
# (§2) 3-(4,5-dimethylthiazol-2-yl)-2,5-dipenyl tetrazolium bromide (MTT) was prepared as a 5 mg/ml stock solution in phosphate buffered saline, filtered through a 0.22 μm filter and stored for up to two weeks at 4° C. while protected from light. For use in the assay it was diluted to 1 mg/ml in a pH 7.2 solution of phenol-red-free RPMI 1640 tissue culture medium supplemented with 1 mM sodium pyruvate and 50 μg/ml gentamycin. The assay was done in flat bottomed 96-well microtiter plates. Culture medium was removed from the wells by inverting and blotting the plate, fifty μl of MTT solution was added to the cells in each well, and each plate was incubated at 37° C. in an atmosphere of 5% CO2 in air. After incubation, each plate was centrifuged for 5 minutes at 8000×g and excess MTT removed by inverting and blotting. Fifty μl of 95% ethanol was added to each well and the plate was shaken (speed 6.5 for 15 minutes) to solubilize the formazan in each well. The optical density of each well was measured using an automatic plate reader with a test wavelength of 570 nm and a reference wavelength of 630 nm.
# (§3) The differential in vitro activity of the above compounds as compared to vincristine and vinblastine with regard to P388 wild-type and P388 multiple-drug resistant leukemia was carried out by the following procedure.
# (§4) Tissue culture-adapted lines of the P388 wild-type and P388 multiple-drug resistant cells (principally resistant to adriamycin) were obtained from the American Type Culture Collection, Rockville, MD. Experiments were conducted in 96-well microtiter plates with 300 cells from either line seeded in a volume of 200 μl of tissue culture medium (RPMI 1640 supplemented to 10% (v/v) with heat-inactivated fetal bovine serum (FBS) and to […] with 1-glutamine). Cells and varying log^10 dilutions of test compound were added to triplicate sets of wells on the same day and cultures were incubated for 5 days at 37° C. in a humidified atmosphere of 5% CO2 in air. The number of cells per well at the end of the experiment was determined colorimetrically by the reduction of MTT as described above.
# [2] = test system: P388 multiple-drug resistant cells; test: cells; format: cell-based, murine; settings: for Fold-resistance: ID50 resistant cell line divided by ID50 wildtype cell line, 7200 min; for IC50: Mus musculus, read-out: ID50 P3/88/resist.
# Experimental: as §1, §2, §3, §4
# [3] = test system: WI-38 fibroblast; test: MTT cell count (ID50), non-transformed human fibroblast cell line WI-38; format: cell-based; design: unit not given here; settings: 6 days incubation
# Experimental: as §1, §2
# (§5) The in vitro effects of the novel compounds as compared to vinblastine and vincristine on three human colon cancer cell lines and one non-transformedhuman cell line were determined by the following procedure.
# (§6) The non-transformed human fibroblast cell line, WI-38 and two of the human colon cancer cell lines, COLO-320-DM and HT-29, were obtained from the American Type Culture Collection, Rockville, MD and the third human colon cancer cell line, OM-1, was supplied by E. I. du Pont de Nemours and Co., Inc., Glenholden, PA. Both OM-1 and COLO-320-DM cells were maintained by serial passage in RPMI 1640 tissue culture medium supplemented to 10% (v/v) with heat-inactivated FBS. HT-29 cells were similarly maintained in McCoys 5A tissue culture medium supplemented with 10% heat-inactivated FBS. COLO-320-DM cells were detached by gentle scraping while HT-29 and OM-1 cells were detached using 0.25% trypsin and 0.05% trypsin, 0.5 mM EDTA solutions respectively. All cultures were incubated at 37° C. in a humidified environment of 5% CO2 in air. Experiments were conducted in 96-well flat-bottomed plates. The initial cell seeds per well for each cell line were 4,000 for WI- 38; 2,000 for COLO-320-DM; 750 for HT-29; and 3,000 for OM-1, each in the appropriate tissue culture medium. Cells were plated 24 hours before test compound was added to allow cells to recover from the effects of physical scraping and trypsinization. Varying log10 dilutions of drug were added to triplicate sets of wells and cultures were incubated for 6 days at 37° in a humidified atmosphere of 5% CO2 in air. The number of cells per well at the end of the experiment was determined colorimetrically by the reduction of MTT as described above and the results for each compounds shown in Table II. For purposes of comparison, the concentration of each test compound required to reduce the final cell number to one-half of the number in drug-free control cultures (ID50) is shown in Table II.
# [4] = test system: COLO-320-DM; test: MTT cell count (ID50), human colon cancer cell line COLO-320-DM; format: cell-based; settings: 144 h, read-out: ID50 COLO-320
# Experimental: as §1, §2, §5, §6
# [5] = test system: HT-29; test: MTT cell count (ID50), human colon cancer cell line HT-29; format: cell-based; settings: HT-29, 144 h, read-out: ID50 HT-29
# Experimental: as §1, §2, §5, §6
# [6] = test system: OM-1; test: MTT cell count (ID50), human colon cancer cell line OM-1; format: cell-based; settings: 144 h, read-out: ID50 OM-1
# Experimental: as §1, §2, §5, §6
# [7] = In vivo effect against P388 leukemia in mice (TD50, ED50, T.I.); settings: mouse, in vivo, ip
# Description: (§7) The in vivo effect of the novel compounds of this invention against P388 leukemia as compared to vinblastine and vincristine, were compared by the following procedure.
# (§8) P388 murine leukemia cells were obtained from Southern Research Institute, Birmingham, Ala., and were maintained by serial i.p. passage in C57BL/6 mice. Female (C57BL/6×DBA/2) F1 (BDF) mice of 6-8 weeks of age from Jackson Laboratories, Bar Harbor, Maine, received 1×10^6 P388 cells by i.p. inoculation on day 0. Compounds were dissolved in saline and administered i.p. to 10 tumor-bearing mice per dose level on days 0-4 and 7-9 using 5 to 10 log2 dilutions from a concentration known to be toxic. […] The therapeutic index (T.I.) for each compound was calculated by the formula: [formula]
# [8] = test system: P388 leukemia; test: as above; settings: for ED50: Mus musculus, P388, ip; for cured tumor-bearing mice at doses which were not toxic: P388 leukemia mice, non-toxic doses; for T.I. (therapeutic index): calculated from TD50 and ED50
# Description: as §7, §8
# [9] = test system: P388 leukemia; test: Increase in mean survival time of mice bearing P388 leukemia; format: in vivo; settings: 0.06 mg/kg (optimal dose), i.p.
# Experimental: The efficacy of the remaining compounds is clearly documented by the fact that each increased the mean survival time of tumor-bearing mice in a dose-dependentmanner. […] The percent increase in mean survival time (MST) which appears in Table IV was calculated by the following formula: [formula]
# [10] = 120 h, P388 wild-type, 5 days incubation, MTT
# [11] = 120 h, P388 multiple-drug-resistant (principally adriamycin), 5 days incubation, MTT
Structure (SMILES),"IC50 ([1]; P388, 120 h) [µM]",Fold-resistance [2],"IC50 ([2]; P388, 120 h) [µM]",ID50 WI-38 fibroblast [3],IC50 [4] [µM],IC50 [5] [µM],IC50 [6] [µM],LD50 [7] [mg/kg],ED50 [8] [mg/kg],cured tumor-bearing mice at doses which were not toxic [8] [%],T.I. (therapeutic index) [8],"IC50 [1, 10] [µM]","IC50 [2, 11] [µM]","IC50 ([4]; 6 days incubation, MTT) [µM]","IC50 ([5]; 6 days incubation, MTT) [µM]","IC50 ([6]; 6 days incubation, MTT) [µM]",ED50 ([8]; read-out: ED50 (extrapolated values)) [mg/kg],Mean Survival Time ([9]; vehicle 10.1 days) [days],Increase in MST ([9]; vs vehicle) [%]
"CC[C@]12C=CCN3CC[C@@]4(c5cc([C@@]6(C(=O)OC)C[C@H]7CN(CCc8c6[nH]c6ccccc86)C[C@@H]6CCCC[C@H]76)c(OC)cc5N(C=O)[C@H]4[C@@](O)(C(=O)OC)[C@@H]1OC(C)=O)[C@@H]32 [Compound F, (4aR,8aS,9R,11S)-15-[1,2,4,4a,5,6,7,8,8a,9,10,11,12,17-tetradecahydro-11-(methoxycarbonyl)-indolo(2',3':6,7,)azonino(1,2,3-bc)isoquinolin-11-yl]N-demethyl-N-formylvindoline]",0.038,12,0.45,1 × 10^-7,0.4,0.03,0.02,0.045,0.016,50,2.8,–,–,–,–,–,–,–,–
"CC[C@]1(O)C[C@H]2CN(CCc3c([nH]c4ccccc34)[C@@](C(=O)OC)(c3cc4c(cc3OC)N(C=O)[C@H]3[C@@](O)(C(=O)OC)[C@H](OC(C)=O)[C@]5(CC)C=CCN6CC[C@]43[C@@H]65)C2)C1 [Vincristine, reference compound]",–,57,–,7 × 10^-8,–,–,–,1,0.17,–,5.9,0.0072,0.41,0.4,0.03,0.05,–,–,–
"CC[C@]12C=CCN3CC[C@@]4(c5cc([C@@]6(C(=O)OC)C[C@H]7CN(CCc8c6[nH]c6ccccc86)C[C@H]6CCCC[C@H]67)c(OC)cc5N(C)[C@H]4[C@@](O)(C(=O)OC)[C@@H]1OC(C)=O)[C@@H]32 [C, (4aS,8aR,9R,11S)-15-[1,2,4,4a,5,6,7,8,8a,9,10,11,12,17-tetradecahydro-11-(methoxycarbonyl)-indolo(2',3':6,7,)azonino(1,2,3-bc)isoquinolin-11-yl]vindoline]",0.22,4,0.85,5 × 10^-7,0.4,0.3,0.4,0.1,–,–,1.0,–,–,–,–,–,0.1,21.1,109
"CC[C@]12C=CCN3CC[C@@]4(c5cc([C@@]6(C(=O)OC)C[C@H]7CN(CCc8c6[nH]c6ccccc86)Cc6ccccc67)c(OC)cc5N(C=O)[C@H]4[C@@](O)(C(=O)OC)[C@@H]1OC(C)=O)[C@@H]32 [Compound B, (9R,11S)-15-[1,2,4,9,10,11,12,17-octahydro-11-(methoxycarbonyl)-indolo(2',3':6,7)azonino(1,2,3-bc)isoquinolin-11-yl]N-demethyl-N-formylvindoline]",0.047,11,0.51,1 × 10^-7,0.3,0.02,0.06,0.092,0.02,50,4.6,–,–,–,–,–,–,–,–
"CC[C@]1(O)C[C@@H]2CN(CCc3c([nH]c4ccccc34)[C@@](C(=O)OC)(c3cc4c(cc3OC)N(C)[C@H]3[C@@](O)(C(=O)OC)[C@H](OC(C)=O)[C@]5(CC)C=CCN6CC[C@]43[C@@H]65)C2)C1 [Vinblastine, reference compound]",–,16,–,5 × 10^-8,–,–,–,0.79,0.41,–,1.9,0.019,0.31,0.05,0.03,0.05,–,–,–
